Data from patent US20150111860A1, “SUSPOEMULSION” (SUMITOMO CHEMICAL COMPANY, LIMITED, priority 2012, published 2015).
Where two headings read alike, the source gives them in different places.

Test: Solubility of ingredient (2) in 100 g of the oil phase (ingredient (1)) at 25° C. by HPLC
Format: physicochemical
Protocol: The solubility can be determined in the following manner. That is, an ingredient (2) is added to an ingredient (1), followed by mixing with stirring. After being left to stand in a constant temperature water bath at 25° C., the supernatant containing the ingredient (2) in a saturated state is isolated and filtered to obtain a solution, and then a prescribed amount of an internal standard fluid is added to prepare a sample liquid for analysis. Using the sample liquid for analysis, high-performance liquid chromatography is performed, thus enabling the measurement of the solubility.

[1] = oil phase composed of pyridalyl and Exxsol D110, 25° C.

CN/C(=N\[N+](=O)[O-])NCc1cnc(Cl)s1 [clothianidin]
solubility in 100 g of the oil phase (oil phase composed of esfenvalerate and Solvesso 150, 25° C.): 0.003 g | solubility in 100 g of the oil phase [1]: 0.009 g | solubility in 100 g of the oil phase (oil phase composed of tolclofos-methyl and Solvesso 150, 25° C.): 0.002 g

CCNc1nc(CC)c(C(=O)NC(C#N)c2cccs2)s1 (stereo not drawn) [ethaboxam]
solubility in 100 g of the oil phase: 0.003 g

Cc1nn(C)c(Cl)c1C(=O)Nc1cccc2c1C(C)OC2(C)C (stereo not drawn) [furametpyr]
solubility in 100 g of the oil phase: 0.394 g

N#Cc1ccccc1NC(=O)c1snc(Cl)c1Cl [isotianil]
solubility in 100 g of the oil phase [1]: 0.020 g
